Calls of active or inactive are those of the source.
What was measured:
[1] = cytotoxicity toward NIH3T3 fibroblasts, dose response, counter-screen, cell-based, ATP luminescence, mouse fibroblasts (AID 2010); format: functional;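 also: cells exposed to compound for about 90 hours before reading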
[2] = inhibitors of intracellular T. cruzi replication, confirmation, NIH3T3 host cells, beta-gal luminescence (AID 2044); format: functional, cell-based;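 also: intracellular parasites grown in NIH/3T3 mouse fibroblasts as host cells; luminescent beta-galactosidase reporter signal from transgenic T. cruzi replicating inside host cells; inhibitors lower the luminescence signal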
Cytochrome P450 2C9 = Cytochrome P450 2C9 (Homo sapiens, UniProt P11712)
Sequence of Cytochrome P450 2C9 (P11712 whole entry): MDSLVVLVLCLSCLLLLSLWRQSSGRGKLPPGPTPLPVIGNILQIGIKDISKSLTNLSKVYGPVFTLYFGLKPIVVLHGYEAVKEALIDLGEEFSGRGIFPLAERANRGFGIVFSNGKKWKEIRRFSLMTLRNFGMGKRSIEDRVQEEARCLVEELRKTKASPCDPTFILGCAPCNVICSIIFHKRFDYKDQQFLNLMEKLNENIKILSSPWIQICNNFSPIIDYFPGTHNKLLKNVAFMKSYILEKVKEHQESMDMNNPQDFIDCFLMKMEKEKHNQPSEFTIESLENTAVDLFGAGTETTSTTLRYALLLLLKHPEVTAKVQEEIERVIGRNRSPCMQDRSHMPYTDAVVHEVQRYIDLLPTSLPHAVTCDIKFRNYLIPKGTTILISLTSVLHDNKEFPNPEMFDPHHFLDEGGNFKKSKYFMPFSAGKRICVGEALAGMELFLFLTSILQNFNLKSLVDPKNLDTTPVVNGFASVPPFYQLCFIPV

Cytochrome P450 3A4 = Cytochrome P450 3A4 (Homo sapiens, UniProt P08684);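 also: CYP3A4 tested as one member of a cytochrome P450 panel screen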
Sequence of Cytochrome P450 3A4 (P08684 whole entry): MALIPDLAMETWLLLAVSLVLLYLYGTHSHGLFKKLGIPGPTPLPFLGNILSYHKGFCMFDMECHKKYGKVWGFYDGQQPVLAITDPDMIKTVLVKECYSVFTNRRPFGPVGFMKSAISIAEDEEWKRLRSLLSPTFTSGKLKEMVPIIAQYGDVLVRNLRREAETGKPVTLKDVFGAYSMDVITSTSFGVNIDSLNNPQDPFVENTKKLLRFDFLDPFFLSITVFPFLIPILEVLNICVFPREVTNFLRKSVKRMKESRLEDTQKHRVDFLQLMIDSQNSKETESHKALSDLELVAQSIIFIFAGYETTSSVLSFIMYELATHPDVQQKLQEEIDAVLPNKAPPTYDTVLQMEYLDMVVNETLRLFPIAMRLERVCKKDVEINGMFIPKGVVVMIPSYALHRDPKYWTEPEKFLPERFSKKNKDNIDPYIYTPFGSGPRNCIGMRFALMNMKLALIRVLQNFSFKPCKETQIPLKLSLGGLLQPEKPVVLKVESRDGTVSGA

[3] = target: T1, Corticotropin-releasing factor receptor 2/Corticotropin-releasing factor-binding protein (Homo sapiens, UniProt P24387+Q13324); assay: activators of CRF receptor 2 with binding protein – uHTS hits, confirmation (AID 602473); format: functional; settings: read-out: EC50_Mean
T1 sequence (Q13324 whole entry): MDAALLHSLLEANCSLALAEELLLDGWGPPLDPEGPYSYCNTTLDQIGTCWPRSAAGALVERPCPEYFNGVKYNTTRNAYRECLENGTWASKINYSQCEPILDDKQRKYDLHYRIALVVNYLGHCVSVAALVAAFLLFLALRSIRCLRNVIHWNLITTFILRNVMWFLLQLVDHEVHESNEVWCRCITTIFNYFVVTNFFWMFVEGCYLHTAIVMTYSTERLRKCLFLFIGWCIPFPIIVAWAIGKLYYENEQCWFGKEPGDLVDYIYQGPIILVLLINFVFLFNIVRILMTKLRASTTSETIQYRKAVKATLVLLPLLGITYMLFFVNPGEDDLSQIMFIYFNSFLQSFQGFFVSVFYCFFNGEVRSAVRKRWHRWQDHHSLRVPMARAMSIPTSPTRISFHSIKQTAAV
T1 sequence (P24387 whole entry): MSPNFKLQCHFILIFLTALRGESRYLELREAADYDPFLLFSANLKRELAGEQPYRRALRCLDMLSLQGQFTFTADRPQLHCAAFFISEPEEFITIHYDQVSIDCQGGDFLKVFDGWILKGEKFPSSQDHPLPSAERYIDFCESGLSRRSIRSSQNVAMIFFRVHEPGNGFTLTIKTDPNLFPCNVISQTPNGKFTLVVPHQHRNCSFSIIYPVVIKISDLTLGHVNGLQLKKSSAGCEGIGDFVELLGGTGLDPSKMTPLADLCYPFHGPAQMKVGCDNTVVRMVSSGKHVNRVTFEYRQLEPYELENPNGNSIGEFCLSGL

Cytochrome P450 2C19 = Cytochrome P450 2C19 (Homo sapiens, UniProt P33261); assay: Cytochrome panel assay with activity outcomes. Panel member name: p450-cyp2c19 Compounds with AC50 equal or less than 10 uM are considered active; format: functional
Sequence of Cytochrome P450 2C19 (P33261 whole entry): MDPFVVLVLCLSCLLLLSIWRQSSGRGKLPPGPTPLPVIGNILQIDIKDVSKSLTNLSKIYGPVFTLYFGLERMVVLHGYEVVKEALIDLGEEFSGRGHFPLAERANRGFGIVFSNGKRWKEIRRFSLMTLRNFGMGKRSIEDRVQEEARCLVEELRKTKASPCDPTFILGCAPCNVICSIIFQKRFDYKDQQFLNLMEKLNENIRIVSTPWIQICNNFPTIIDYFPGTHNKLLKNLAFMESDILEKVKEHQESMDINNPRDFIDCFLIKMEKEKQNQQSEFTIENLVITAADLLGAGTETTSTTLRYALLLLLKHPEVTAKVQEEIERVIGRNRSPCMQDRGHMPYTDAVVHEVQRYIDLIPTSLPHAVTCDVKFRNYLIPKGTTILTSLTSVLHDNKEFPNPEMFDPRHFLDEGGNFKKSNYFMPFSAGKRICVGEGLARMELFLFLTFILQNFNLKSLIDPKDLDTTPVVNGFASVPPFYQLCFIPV

[4] = tested on: Streptococcus sp. 'group A'; assay: growth inhibition of control SK(-) GAS strain, dose response, counter-screen for streptokinase expression inhibitor project, luminescence, kanamycin, BacTiterGlo, confirmation (AID 1900); format: functional, organism-based
Streptococcus = assay: Group A Streptococcus viability loss, dose response, counter-screen for streptokinase expression inhibitor project, luminescence, BacTiterGlo (AID 1915); format: functional, organism-based;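 also: potency for reduction of bacterial viability or growth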
Streptokinase A = target: T2, Streptokinase A (Streptococcus pyogenes serotype M1, UniProt P10520); assay: S. pyogenes streptokinase expression inhibitors, potency, dose response, plasminogen activation absorbance, OD405 (AID 1914); format: functional, Streptococcus pyogenes M1 GAS;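 also: secreted streptokinase activity via plasminogen activation per viability signal from cell pellet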
T2 sequence (P10520 whole entry): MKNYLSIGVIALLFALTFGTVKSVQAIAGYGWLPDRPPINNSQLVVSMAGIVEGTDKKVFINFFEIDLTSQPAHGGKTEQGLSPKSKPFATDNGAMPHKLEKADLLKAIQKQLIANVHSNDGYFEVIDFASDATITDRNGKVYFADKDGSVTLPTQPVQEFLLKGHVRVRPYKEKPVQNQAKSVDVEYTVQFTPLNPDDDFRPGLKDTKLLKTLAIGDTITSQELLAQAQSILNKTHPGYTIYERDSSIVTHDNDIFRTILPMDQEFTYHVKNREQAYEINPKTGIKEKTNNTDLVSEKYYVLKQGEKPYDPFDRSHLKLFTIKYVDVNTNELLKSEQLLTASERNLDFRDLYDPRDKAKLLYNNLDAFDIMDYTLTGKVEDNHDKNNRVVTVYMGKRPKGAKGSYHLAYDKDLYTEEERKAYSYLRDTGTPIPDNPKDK

Row | Compound | EC50 [1] | EC50 [2] | AC50 (Cytochrome P450 3A4) | also measured
1 | COc1ccc(Cc2noc(CN3CCN(Cc4cccc(Cl)c4)CC3)n2)cc1OC | > 30 µM (not active) | 0.788 µM (active) | – | –
2 | Cn1cccc1C(=O)N1CCC2(CCCN(c3ccncc3)C2)CC1 | – | – | – | AC50 (Cytochrome P450 2C9): 25.1 µM (inconclusive)
3 | Cc1noc(C)c1C(=O)N1CCC2(CCCN(Cc3nccs3)C2)CC1 | – | – | 12.6 µM (inconclusive) | –
4 | CCOc1ccc(NC(=O)CCSc2nc3c(c(CC)c2C#N)C(=O)CC(C)(C)C3)cc1 | > 60 µM (inconclusive) | 2.94 µM (active) | – | –
5 | Cc1ccc(NC(=S)/N=C(\N)Nc2nc(C)c3cc(C)c(C)cc3n2)cc1C | – | 1.98 µM (active) | – | –
6 | c1cncc(-c2nc(NCCCN3CCOCC3)c3c4c(sc3n2)CCC4)c1 | > 60 µM (not active) | 2.58 µM (active) | – | –
7 | Fc1ccc(NC(=S)N2CCn3cccc3C2c2cccnc2)cc1 (configuration not stated) | > 60 µM (not active) | 0.229 µM (active) | – | –
8 | COc1ccc(S(=O)(=O)N2Cc3ccccc3CC2C(=O)Nc2nccs2)cc1 (configuration not stated) | – | – | 3.55 µM (active) | –
9 | CCc1ccc(S(=O)(=O)NCC2(N3CCOCC3)CCCCC2)cc1 | – | – | – | EC50 [3]: 6.83 µM (active)
10 | CN1CCN(c2oc(COc3ccc(-c4ccccc4)cc3)nc2C#N)CC1 | > 60 µM (not active) | 0.226 µM (active) | – | –
11 | O=c1c(-c2ccc(F)cc2)nc2cnc(N3CCOCC3)nc2n1Cc1cccs1 | – | – | 15.8 µM (inconclusive) | –
12 | C=CCNC(=O)c1cccn1-c1ccsc1C(=O)OC | – | – | 14.1 µM (inconclusive) | –
13 | Cc1noc(C)c1-c1nccc(N(C)Cc2ccco2)n1 | – | – | 25.1 µM (inconclusive) | –
14 | Cc1ccc(S(=O)(=O)NC2=NC(=O)/C(=C/c3cccnc3)S2)cc1 | – | – | 0.891 µM (inconclusive) | –
15 | CCS(=O)(=O)N1CCN(c2ccc(C(=O)NC3C4CC5CC(C4)CC3C5)cc2[N+](=O)[O-])CC1 (configuration not stated) | > 30 µM (not active) | 2.32 µM (active) | – | –
16 | CCCCN=C(S)N1CCn2cccc2C1c1cccnc1 (configuration not stated) | > 60 µM (inconclusive) | 1.77 µM (active) | – | –
17 | COc1ccc(C(=O)Nc2scc(-c3ccc(Cl)cc3Cl)c2C(N)=O)cc1 | – | – | 28.2 µM (inconclusive) | –
18 | Cc1ncsc1CCCl [CLOMETHIAZOLE] | – | – | – | AC50 (Cytochrome P450 2C9): 2.51 µM (inconclusive)
19 | CCC1CCCCN1C(=O)COC(=O)COc1ccc(Br)cc1 (configuration not stated) | – | – | – | EC50 [3]: > 53 µM (inactive)
20 | CC(=O)N1CCC[C@@]2(CCN(c3ccncc3)C2)C1 | – | – | 25.1 µM (inconclusive) | –
21 | CCC1(CC)C(=O)N(Cc2ccccc2)C(=O)N(Cc2ccccc2)C1=O | > 30 µM (not active) | 1.71 µM (active) | – | –
22 | C=CCC[C@H](Cc1ccc(F)cc1)C(=O)OC[C@H](Cc1c[nH]c2ccccc12)NC(=O)[C@@H](CC=C)CC(=O)NCCO | – | – | – | EC50 [3]: 12.8 µM (active)
23 | CCC1(C)CC(=O)NC(=O)C1 [BEMEGRIDE] | – | – | – | AC50 (Cytochrome P450 2C19): inconclusive
24 | O=S(=O)(NC(=NCc1ccccc1)c1ccccc1)c1ccc(Br)cc1 | – | – | – | EC50 [4]: > 150 µM (not active); EC50 (Streptococcus): > 150 µM (not active); EC50 (Streptokinase A): 33.4 µM (active)
25 | CCCC(=O)Nc1nc(-c2ccc3c(c2)CCN3S(C)(=O)=O)cs1 | – | – | 7.94 µM (inconclusive) | –
26 | COc1ccc2c(CC#N)c[nH]c2c1 | – | – | – | EC50 [3]: > 53 µM (inactive)
27 | CN(C(=O)Cc1c(C(=O)O)n(C)c2ccccc12)c1ccc(F)cc1 | – | – | – | EC50 [4]: > 150 µM (not active); EC50 (Streptococcus): > 150 µM (not active); EC50 (Streptokinase A): > 150 µM (not active)
28 | O=C(COc1ccccc1)N1CCN(c2nnc(-c3ccccc3)c3ccccc23)CC1 | > 60 µM (not active) | 1.77 µM (active) | – | –
29 | N#Cc1cccc(-c2nc3cnc(N4CCNCC4)nc3n(C3CC3)c2=O)c1 | – | – | 20 µM (inconclusive) | –
